Measurements as given in patent publication US12708606B2 (UNIVERSITY OF GEORGIA RESEARCH FOUNDATION, INC., priority 2018, dated 2026).

Legend:
[1] = cited from earlier work
[2] = in vivo; cited from earlier work
[3] = system: MMP-13; assay: Immunofluorescence staining of MMP-13 in IL-1β stimulated chondrocytes; format: cell-based, rat; details: pre-incubation before IL-1β 10 ng/mL
Procedure: (§1) Cells were divided into nine groups: (1) Control: chondrocytes treated with SLFNP; (2) IL-1β: chondrocytes treated with 10 ng/mL IL-1β (Gibco, USA) and cultured for 2 days; (3) LiCl+IL-1β: chondrocytes pre-incubated with LiCl for 1 h followed by treatment with 10 ng/mL IL-1β for 2 days; (4) 1 mM SLFNP+IL-1β: chondrocytes pre-incubated with 1 mM SLFNP for 1 h followed by treatment with IL-1β for 2 days; (5) 5 mM SLFNP+IL-1β: chondrocytes pre-incubated with 5 mM SLFNP for 1 h followed by treatment with IL-1β for 2 days; (6) HA+IL-1β: condrocytes pre-incubated with 10 mg/mL HA for 1 h followed by treatment with IL-1β for 2 days; (7) HA+LiCl+IL-1β: chondrocytes pre-incubated with 10 mM LiCl and HA for 1 h followed by treatment with IL-1β for 2 days; (8) HA+1 mM SLFNP+IL-1β: chondrocytes pre-incubated with 1 mM SLFNP and HA for 1 h followed by treatment with IL-1β for 2 days; (9) HA+5 mM SLFNP+IL-1β: chondrocytes pre-incubated with 5 mM SLFNP and HA for 1 h followed by treatment with IL-1β for 2 days.
After 2 days of culture, cells in the different treatment groups were washed twice with PBS, fixed in 4% formalin for 20 min, and permeabilized with 0.3% Triton X-100 (WN) in PBS for 10 min. After blocking with 5% BSA in PBS for 1 hour at room temperature, primary MMP-13 antibodies were added (1:200 dilution, Abcam, USA) and incubated at 4° C. overnight. […]

[4] = system: iNOS; assay: qRT-PCR of iNOS in IL-1β stimulated chondrocytes; format: cell-based, rat; details: compared to IL-1β-stimulated cells
Procedure: as §1
(§2) RNA was isolated from chondrocytes in all groups after 2 days of treatment using an RNA isolation kit (Tiangen Biotechnology). […]

[5] = system: Sprague-Dawley rats with surgery-induced OA; assay: Histological evaluation (H&E, Safranin O-fast green, OARSI score) in rat ACLT OA model; format: in vivo
Procedure: Sprague Dawley Rats (SD rats) were obtained from Guangxi Medical University. All experiments were conducted in accordance with the guidelines of the Animal Committee and with ethics approval from the Guangxi Medical University Animal Care and Use Committee, China (Protocol Number: 2015-11-27). A total of 152 male SD rats with a weight of 180±20 g were used. After anesthesia, 144 randomly selected rats underwent bilateral anterior cruciate ligament transection (ACLT) on the right knee joints to induce OA. Another 8 rats received sham operations (Sham group), in which the articular cavity was opened and sutured with the short anterior cruciate ligament intact. After surgery, all animals were returned to their cages, with the limbs not immobilized. One month after the surgery, the animals were randomly sorted into […] groups (n=24) and were i.a. injected once per week with the following regimens for 8 weeks: SLFNP+HA (1.74 μg Li in 50 μL 10 mg/mL HA), SLFNP alone (1.74 μg Li in […] PBS), LiCl+HA (3.48 μg Li in 50 μL 10 mg/mL HA), LiCl alone (3.48 μg in 50 μL PBS), HA alone (50 μL), and PBS (50 μL). In the sham groups, no other procedures were conducted. The animals in the six groups were sacrificed at 4 and 8 weeks after therapy (n=12). […]

[6] = system: IL6; assay: qRT-PCR of IL6 in IL-1β stimulated chondrocytes; format: cell-based, rat; details: compared to IL-1β-stimulated cells
Procedure: as §1, §2

[7] = system: IL-1β induced chondrocytes; assay: Live/dead assay of IL-1β induced chondrocytes; format: cell-based, rat; details: vs PBS group, IL-1β 10 ng/mL
Procedure: as §1
Cells were treated as the same procedures as described above. Live/dead assays were performed using a live/dead viability assay kit (Invitrogen, USA) after 2 days of culture. Briefly, cells were incubated in a solution containing […] of calcein AM and […] of ethidium homodimer-1 for 40 min at room temperature in the dark. […]

[8] = system: ADAMTS5; assay: qRT-PCR of ADAMTS5 in IL-1β stimulated chondrocytes; format: cell-based, rat; details: compared to IL-1β-stimulated cells
Procedure: as §1, §2

[9] = system: Sprague-Dawley rats with surgery-induced OA; assay: Macroscopic evaluation of cartilage lesions in rat ACLT OA model; format: in vivo
Procedure: In vivo analysis was performed in Sprague-Dawley rats which had undergone bilateral anterior cruciate ligament transection (ACTL) surgery. One month after the surgery, the animals were randomly sorted into six groups (n=24) and were i.a. injected once per week with the following regimens: SLFNP+HA (1.74 μg Li in 50 μL HA), SLFNP alone (1.74 μg Li in 50 μL PBS), LiCl+HA (3.48 μg Li in 50 μL HA), LiCl alone (3.48 μg in 50 μL PBS), HA alone (50 μL), and PBS (50 μL). For control, a sham-operated group was also studied.
Sprague Dawley Rats (SD rats) were obtained from Guangxi Medical University. […]
After 4 and 8 weeks of treatment, SD rats were sacrificed by intraperitoneal overdose of pentobarbital. […] The observers evaluated the depth of lesions of the articular cartilage on a scale of 0-4 (0=normal-appearing surface, 1=minimal fibrillation or a slight yellow discoloration of the surface, 2=erosion extending into the superficial or middle layers only, 3=erosion extending into the deep layers, and 4=erosion extending to the subchondral bone). The surface area of erosion was calculated with a digital caliper and presented them as mm2, with a higher score indicating greater cartilage damage.

[10] = system: COX-2; assay: qRT-PCR of COX-2 in IL-1β stimulated chondrocytes; format: cell-based, rat; details: compared to IL-1β-stimulated cells
Procedure: as §1, §2

[11] = system: MMP3; assay: qRT-PCR of MMP3 in IL-1β stimulated chondrocytes; format: cell-based, rat; details: compared to IL-1β-stimulated cells
Procedure: as §1, §2

[12] = system: IL-1β induced chondrocytes; assay: Chondroprotective effect: CCK-8 viability of IL-1β induced chondrocytes; format: cell-based, rat; details: LiCl 10 mM, IL-1β 10 ng/mL, 48 h
Procedure: The capacity of SLFNP was assessed to protect chondrocytes from deterioration induced by inflammatory cytokines. Chondrocytes were first incubated with SLFNP and then added to the medium 10 ng/mL interleukin-1-beta (IL-1β), a major inflammatory cytokine involved in chronic OA. For comparison, chondrocytes were treated with PBS or LiCl salt (10 mM) before adding IL-1β. In the PBS group, CCK-8 assay found a marked drop of cell viability (37.64% at 48 h). […]

[Li] [lithium]
serum lithium toxicity threshold [1]: 1.5 mM

hyaluronic acid [HA]
time for i.a. injected HA to fully degrade in the joint [2]: ~ 60 h

[Cl-].[Li+] [LiCl, lithium chloride]
MMP13 expression (immunofluorescence) [3]: upregulation was attenuated | reduction of mRNA level of iNOS [4]: 57.66% | reduction of OARSI score compared to the PBS control ([5]; Week 4): 19.28% | reduction of OARSI score compared to the PBS control ([5]; Week 8): 11.95% | reduction of mRNA level of IL6 [6]: 54.94% | positive ethidium homodimer-1 staining [7]: significantly reduced level of positive staining | reduction of mRNA level of ADAMTSS [8]: 59.77% | average lesion area ([9]; Week 4, i.a. once per week): 8.5 mm2 | average lesion area ([9]; Week 8, i.a. once per week): 10.2 mm2 | reduction of mRNA level of COX-2 [10]: 68.29% | reduction of mRNA level of MMP3 [11]: 57.45% | cell viability [12]: 80.77%
